Reference: the supplement of paper PMC8882468

How the values were obtained:
Assay in all cases: CTG-3D luminescence at 96 h relative to day-0 seeding control (ratio to day 0); higher = more growth / less cytotoxicity; PDxO 3D drug screen, 96 h, CTG-3D normalised to day-0 seeding control.
[1] = system: HCI-008 (organoid from a HER2-enriched breast cancer xenograft)
[2] = system: HCI-002 (organoid from a triple-negative breast cancer xenograft)
[3] = system: HCI-017.E2 (organoid from an ER-positive breast cancer xenograft)
[4] = system: HCI-023 (organoid from a triple-negative breast cancer xenograft)
[5] = system: HCI-024 (organoid from a breast cancer xenograft)

COc1cccc2c1C(=O)c1c(O)c3c(c(O)c1C2=O)C[C@@](O)(C(=O)CO)C[C@@H]3O[C@H]1C[C@H](N)[C@H](O)[C@H](C)O1 [doxorubicin]
CTG-3D luminescence at 96 h
Settings	12.5 pM	0.00025 µM	0.005 µM	0.1 µM	1 µM	10 µM	100 µM	625 fM
[1], days in culture: 228	1.33	1.91	1.48	1.51	0.743	0.19	0.0571	1.87
[1], days in culture: 244	1.19	1.9	1.52	2.09	0.849	0.198	0.0903	2.37
[2], days in culture: 62	2.87	2.62	2.59	1.61	0.668	0.0335	0.00573	2.88
[2], days in culture: 82	3.24	2.83	2.22	2.02	0.999	0.0349	0.0154	3.02
[2], days in culture: 91	4.09	3.38	3.24	2.3	1.03	0.0844	0.0322	3.96
[2], days in culture: 191	2.74	2.53	2.51	1.69	1.02	0.0535	0.00895	2.52
[2], days in culture: 209	2.54	2.37	2.28	1.51	0.836	0.0193	0.00843	2.44
[2], days in culture: 227	4.92	5.5	4.24	3.32	1.62	0.0266	-0.0178	5.72
[3], days in culture: 85	2.94	3.18	2.56	2.01	1.71	0.616	0.808	2.4
[4], days in culture: 111	1.54	1.21	1.32	1.1	0.426	0.00296	0.00755	1.45
[4], days in culture: 128	1.92	1.73	1.62	1.33	0.321	0.00812	0.00367	2.08
[5], days in culture: 105	1.87	1.64	1.47	1.53	1.05	0.158	0.154	2.18
[5], days in culture: 122	2.06	2.32	1.72	1.45	1.06	0.153	0.156	2.88
[5], days in culture: 163	1.43	2.44	1.96	2.3	1.38	0.176	0.187	1.44

[3]
Settings	CTG-3D luminescence at 96 h
12.5 pM	1.87
0.00025 µM	2.06
0.005 µM	2.07
0.1 µM	1.89
1 µM	1.2724
10 µM	0.484
100 µM	0.598
625 fM	2.26

C[C@]12CC[C@@H]3c4ccc(O)cc4C[C@@H](CCCCCCCCC[S+]([O-])CCCC(F)(F)C(F)(F)F)[C@H]3[C@@H]1CC[C@@H]2O (stereo not given in full) [fulvestrant]
CTG-3D luminescence at 96 h
Settings	12.5 pM	0.00025 µM	0.005 µM	0.1 µM	1 µM	10 µM	100 µM	625 fM
[1], days in culture: 228	1.6	1.76	1.34	1.68	1.62	1.36	1.29	1.89
[1], days in culture: 244	1.4	1.74	1.94	2.15	1.59	1.9	1.66	2.27
[2], days in culture: 62	2.97	2.65	3.14	2.57	2.65	3.11	2.61	2.86
[2], days in culture: 82	2.97	2.85	2.4	2.79	2.79	2.61	2.5	2.6
[2], days in culture: 91	3.59	3.05	2.86	3.23	2.74	3.39	2.65	3.54
[2], days in culture: 191	2.73	3.1	2.93	2.95	3.38	2.54	2.67	2.7
[2], days in culture: 209	2.15	2.27	2.46	2.23	2.28	1.83	2.35	2.47
[2], days in culture: 227	5.09	4.65	4.95	5.59	4.77	5	4.58	5.27
[3], days in culture: 85	2.84	3.05	2.96	2.18	1.78	1.41	1.89	2.52
[4], days in culture: 111	1.5	1.45	1.4	1.27	0.963	1.24	0.911	1.61
[4], days in culture: 128	1.83	1.54	1.6	2.08	1.33	1.56	1.11	1.75
[5], days in culture: 105	1.45	1.55	1.32	1.36	1.34	2.02	1.67	1.87
[5], days in culture: 122	2.08	2.51	2.43	1.84	1.77	2.65	1.86	2.53
[5], days in culture: 163	1.83	1.9	1.55	2.47	2.05	1.88	2.09	1.91

[3]
Settings	CTG-3D luminescence at 96 h
12.5 pM	1.94
0.00025 µM	2.16
0.005 µM	2.05
0.1 µM	1.92
1 µM	1.53
10 µM	1.4
100 µM	1.55
625 fM	1.88

Nc1ccn([C@@H]2O[C@H](CO)[C@@H](O)C2(F)F)c(=O)n1 [gemcitabine]
CTG-3D luminescence at 96 h
Settings	12.5 pM	0.00025 µM	0.005 µM	0.1 µM	1 µM	10 µM	100 µM	625 fM
[1], days in culture: 228	1.403	1.8	1.3404	0.6483	0.596	0.717	0.362	1.48
[1], days in culture: 244	1.25	1.74	1.74	1.26	0.69	0.873	0.465	2.18
[2], days in culture: 62	2.82	2.59	2.68	0.347	0.301	0.302	0.333	2.87
[2], days in culture: 82	3.16	3.03	2.46	0.461	0.431	0.271	0.234	3.23
[2], days in culture: 91	4.24	3.02	3.08	0.544	0.381	0.346	0.287	3.87
[2], days in culture: 191	2.63	2.79	2.69	0.517	0.487	0.295	0.366	2.52
[2], days in culture: 209	2.52	2.33	2.08	0.339	0.32	0.178	0.242	2.33
[2], days in culture: 227	5.51	5.33	4.57	1.05	0.78	0.657	0.547	4.99
[3], days in culture: 85	2.64	2.91	2.88	1.88	1.87	1.29	1.7	2.11
[4], days in culture: 111	1.4	1.31	1.05	0.265	0.33	0.28	0.0585	1.43
[4], days in culture: 128	1.62	1.78	1.15	0.416	0.26	0.399	0.0826	1.9
[5], days in culture: 105	1.5	1.57	1.43	0.795	0.966	0.91	0.516	1.82
[5], days in culture: 122	2.2	2.2	1.93	0.864	0.97	1.31	0.459	2.9
[5], days in culture: 163	1.49	1.85	1.78	1.61	1.15	0.775	0.456	2

[3]
Settings	CTG-3D luminescence at 96 h
12.5 pM	2.08
0.00025 µM	2.07
0.005 µM	1.97
0.1 µM	1.88
1 µM	1.74
10 µM	1.54
100 µM	1.67
625 fM	2.23

C=CC(=O)N1CCC[C@@H](n2nc(-c3ccc(Oc4ccccc4)cc3)c3c(N)ncnc32)C1 [ibrutinib]
CTG-3D luminescence at 96 h
Settings	12.5 pM	0.00025 µM	0.005 µM	0.1 µM	1 µM	10 µM	100 µM	625 fM
[1], days in culture: 228	1.59	1.84	1.21	1.18	1.26	1	-0.0059	1.66
[1], days in culture: 244	1.25	1.71	1.76	1.65	1.52	1.3	-0.0038	1.98
[2], days in culture: 62	2.83	2.33	2.92	2.77	1.54	1.45	-0.0218	2.97
[2], days in culture: 82	3.16	2.97	2.43	2.38	1.77	1.32	-0.0175	2.68
[2], days in culture: 91	3.98	3.44	3.33	3.61	2.11	1.75	-0.0238	3.98
[2], days in culture: 191	2.76	2.47	2.21	2.23	1.69	1.34	-0.014	2.82
[2], days in culture: 209	2.33	2.16	2.33	1.87	1.63	1	-0.0179	2.34
[2], days in culture: 227	5.2	5.07	4.64	4.59	2.61	2.26	-0.0321	5.19
[3], days in culture: 85	2.54	2.97	2.31	2.54	1.88	1.6	0.0338	2.31
[4], days in culture: 111	1.24	1.25	1.32	1.2	1.03	1.02	-0.00294	1.29
[4], days in culture: 128	1.42	1.43	1.55	1.48	1.26	1.03	-0.00478	1.54
[5], days in culture: 105	1.56	1.54	1.35	1.46	1.32	1.61	-0.00218	1.84
[5], days in culture: 122	2.18	2.8	2.14	1.49	1.64	1.91	-0.00165	3.5
[5], days in culture: 163	1.47	2.09	2.1	2.44	1.92	1.75	0.00762	2.03

[3]
Settings	CTG-3D luminescence at 96 h
12.5 pM	1.84
0.00025 µM	2.24
0.005 µM	2.27
0.1 µM	2.21
1 µM	2.29
10 µM	1.49
100 µM	0.00316
625 fM	2.16

CN(Cc1cnc2nc(N)nc(N)c2n1)c1ccc(C(=O)N[C@@H](CCC(=O)O)C(=O)O)cc1 [methotrexate]
CTG-3D luminescence at 96 h
Settings	12.5 pM	0.00025 µM	0.005 µM	0.1 µM	1 µM	10 µM	100 µM	625 fM
[1], days in culture: 228	1.82	1.9	1.53	1.98	1.97	1.82	1.2	2.01
[1], days in culture: 244	1.4	1.83	1.93	2.13	1.59	1.93	1.66	2.31
[2], days in culture: 62	2.96	2.69	2.51	2.07	1.87	1.98	1.41	3
[2], days in culture: 82	2.95	3.08	2.15	2.74	2.21	2.01	1.45	2.71
[2], days in culture: 91	3.87	3.77	3.65	2.64	2.19	2.11	1.68	4.28
[2], days in culture: 191	2.61	2.61	2.29	1.61	1.57	1.54	1.33	2.53
[2], days in culture: 209	2.46	2.21	2.31	1.84	1.59	1.28	1.33	2.57
[2], days in culture: 227	6.13	6.3	5.89	6.23	5.35	5.18	4.27	6.94
[3], days in culture: 85	2.97	2.49	2.7	2.26	2.43	2.05	2.13	2.34
[4], days in culture: 111	1.59	1.42	1.18	1.07	0.83	0.957	0.655	1.51
[4], days in culture: 128	1.68	1.51	1.5	1.84	1.37	1.77	1.22	1.62
[5], days in culture: 105	1.92	1.49	1.24	1.99	1.64	2	1.44	1.83
[5], days in culture: 122	1.69	2.22	2.07	2	2.13	2.46	1.82	2.88
[5], days in culture: 163	1.9	2.08	1.83	2.4	2.14	2.03	1.74	2.12

[3]
Settings	CTG-3D luminescence at 96 h
12.5 pM	2.07
0.00025 µM	2.19
0.005 µM	2.14
0.1 µM	2
1 µM	2.22
10 µM	2.19
100 µM	2.15
625 fM	2.05
